Data: ChEMBL document CHEMBL1177704, “Unexpected reaction of 2-alkylsulfanylimidazoles to imidazol-2-ones: pyridinylimidazol-2-ones as novel potent p38alpha mitogen-activated protein kinase inhibitors” (J Med Chem, 2010)

Key:
[1] = biological target: Mitogen-activated protein kinase 14 (Homo sapiens, UniProt Q16539); assay: Inhibition of p38alpha
Blood = assay: Antiinflammatory activity in human whole blood assessed as inhibition of LPS-stimulated TNFalpha release after 15 mins by ELISA; type: functional, tissue-based; settings: 0.25 h

Chain of Mitogen-activated protein kinase 14 (Q16539 whole entry): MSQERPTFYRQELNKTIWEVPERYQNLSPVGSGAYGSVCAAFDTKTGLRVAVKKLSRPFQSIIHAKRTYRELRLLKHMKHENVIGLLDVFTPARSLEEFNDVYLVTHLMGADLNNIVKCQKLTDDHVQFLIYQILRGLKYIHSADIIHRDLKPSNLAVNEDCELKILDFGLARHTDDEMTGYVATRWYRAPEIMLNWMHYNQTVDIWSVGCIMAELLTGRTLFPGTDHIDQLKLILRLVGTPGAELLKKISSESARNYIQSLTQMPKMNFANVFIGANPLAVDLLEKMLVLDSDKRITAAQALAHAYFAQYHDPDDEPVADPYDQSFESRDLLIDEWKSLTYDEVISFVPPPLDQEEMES

SMILES | IC50 [1] | IC50 (Blood)
C[C@@H](Nc1cc(-c2[nH]c(=O)[nH]c2-c2ccc(F)cc2)ccn1)c1ccccc1 | 324 nM | –
O=c1[nH]c(-c2ccc(F)cc2)c(-c2ccnc(N[C@H]3CC[C@H](O)CC3)c2)[nH]1 | 23 nM | 2920 nM
O=c1[nH]c(-c2ccncc2)c(-c2ccc(F)cc2)[nH]1 | 468 nM | –
C[S+]([O-])c1ccc(-c2nc(-c3ccc(F)cc3)c(-c3ccncc3)[nH]2)cc1 (configuration not stated) [SB-203580] | – | 1760 nM
CC(C)[C@H](C)Nc1cc(-c2[nH]c(=O)[nH]c2-c2ccc(F)cc2)ccn1 | 49 nM | 381 nM
